Consider five compounds from patent US20070042971A1, “Crystalline compound of 4'-demethyl-4'-phosphate-2", 3"-bispentafluorophenoxy-acetyl-4", 6"-ethylidene-beta-d-epipodophyllotoxin glucoside either in its free form or solvated with ethanol” (Pierre Fabre Medicament, priority 2003, published 2007).

In brackets after ≈: the same amount, converted by molar mass. Entries after “also recorded” stand apart in the source; their conditions may differ. Read-outs that look alike come from different tables or passages of the source.

Series [1] relates to P388 leukemia. Particulars: mice implanted with the P388 leukemia model; cited from earlier work.
A short description of series [2]: Solubility in water and ethanol. The format is physicochemical.
For series [3], the system named is P388 leukemia.
For series [4] the following is noted: cited from earlier work.
For series [5] the following is noted: powdered form; for % of degradation products after 1 month at 30° C. with 75% relative humidity: open bottle.
Where [6] appears, read: listed as hemiethanolate compound of formula 3 in crystalline form.

Take “4′-demethylepipodophyllotoxin 2″,3″-bispentafluoro-phenoxyacetyl-4″,6″-ethylidene-β-D-glucoside 4′-phosphate [Compound of formula 1]”: under “conserved at 4° C. and, a fortiori, at ambient temperature”, the stability on conservation result is “degrades over time”. Moreover, the stability entry (usual conditions of neutral and acid pH and of temperature) is listed as “stable”. Besides, the survival entry in series [1] is “long survival”.

On to `COc1cc(C2c3cc4c(cc3[C@@H](OC3OC5COC(C)OC5C(OC(=O)COc5c(F)c(F)c(F)c(F)c5F)C3OC(=O)COc3c(F)c(F)c(F)c(F)c3F)[C@H]3COC(=O)C23)OCO4)cc(OC)c1OP(=O)(O)O` (stereo partly drawn) [Compound of formula 2 in amorphous form, 4′-demethylepipodophyllotoxin 2″,3″-bispentafluoro-phenoxyacetyl-4″,6″-ethylidene-β-D-glucoside 4′-phosphate], for which, in series [2] (ethanol), the “solubility in ethanol (in words)” value is recorded as “soluble”. The “solubility in water (in words)” value in series [2] (water) is on record as “is not”. In addition, in series [3] (mouse, in vivo), the “antitumor activity (in words)” value is given as “does not induce any significant antitumor activity”. Further, in series [3] (mouse, in vivo), the “in vivo antitumor activity (in words)” value is reported as “did not have the in vivo activity”. Also, the “T/C values (%)” value worked out at 100% in series [3] (mouse, in vivo, ip, 40 mg/kg); 114% in series [3] (mouse, in vivo, ip, 80 mg/kg); 157% in series [3] (mouse, in vivo, ip, 160 mg/kg).

Consider `COc1cc(C2c3cc4c(cc3[C@@H](OC3OC5COC(C)OC5C(OC(=O)COc5c(F)c(F)c(F)c(F)c5F)C3OC(=O)COc3c(F)c(F)c(F)c(F)c3F)[C@H]3COC(=O)C23)OCO4)cc(OC)c1OP(=O)(O)O` (stereo partly drawn) [Crystalline formula 2, 4′-demethylepipodophyllotoxin 2″,3″-bispentafluorophenoxyacetyl-4″,6″-ethylidene-β-D-glucoside 4′-phosphate], for which, in series [3] (mouse, in vivo), the “in vivo antitumor activity (in words)” value is reported as “exhibits the required pharmacological activity; also recorded: high-level antitumor activity”. The “prolongation of the survival of the animals” value is 43% in series [3] (mouse, in vivo, 40 mg/kg) and 200% in series [3] (mouse, in vivo, 160 mg/kg). The “T/C values (%)” value in series [3] (mouse, in vivo, ip, 40 mg/kg) was found to be 143%; in series [3] (mouse, in vivo, ip, 80 mg/kg), 157%; in series [3] (mouse, in vivo, ip, 160 mg/kg), 300%.

As to `COc1cc([C@@H]2c3cc4c(cc3[C@@H](O[C@@H]3O[C@@H]5CO[C@@H](C)O[C@H]5[C@H](O)[C@H]3O)[C@H]3COC(=O)[C@H]23)OCO4)cc(OC)c1OP(=O)(O)O` [Etopophos], the solubility in water in series [4] was 100 mg/mL (≈ 150 mM).

Take “hemiethanolate of 4′-demethylepipodophyllotoxin 2″,3″-bispentafluoro-phenoxyacetyl-4″,6″-ethylidene-β-D-glucoside 4′-phosphate”: the “% of degradation products after 1 month at 30° C. with 75% relative humidity” value in series [5] and in series [5] (setting [6]) was 1.8% each time. In addition, the “% of degradation products after 1 month at 40° C. in a closed bottle” value in series [5] and in series [5] (setting [6]) was 1.5% throughout. The “in vivo antitumor activity (in words)” value was “high-level antitumor activity” in series [3] (P388 leukemia model, overall, listed as compound of formula 3 in crystalline form) and “exhibits the required pharmacological activity” in series [3] (P388 leukemia model, overall, listed as hemiethanolate of formula 3). Moreover, the “prolongation of the survival of the animals” value in series [3] (dose 40 mg/kg) is given as 43%; in series [3] (dose 160 mg/kg), 229%. The “T/C values (%)” value in series [3] (dose 40 mg/kg, single intraperitoneal injection on day 1, median survival treated/control x 100) worked out at 143%; in series [3] (dose 80 mg/kg, single intraperitoneal injection on day 1, median survival treated/control x 100), 143%; in series [3] (dose 160 mg/kg, single intraperitoneal injection on day 1, median survival treated/control x 100), 329%.
